Key:
[1] = tested on: Human hepatoma cell lines HepG2 and Hep3B; test: Flow cytometry of CD133+ cell proportion; assay type: cell-based; conditions: data not shown
Protocol: 1. […] After 24 hrs, the medium was replaced with fresh DMEM culture solution containing 10% FBS. After three days, the cells were collected, and the CD133/1-PE (Miltenyi Biotec, Auburn, Calif.) was used as primary antibody for incubation, and the proportion of CD133+ cells was determined by flow cytometry.

solid tumors = test: In vivo study of control substances on solid tumor differentiation; conditions: background statement of inventors' study
[2] = tested on: Human hepatoma cell lines HepG2 and Hep3B; test: In vitro effects of control substances on hepatoma cell lines (RT-PCR, immunohistochemistry, morphology); assay type: cell-based; conditions: for regulation effect on in vitro differentiation of hepatocellular carcinoma cell lines: background statement of inventors' study; for apoptosis / proliferation: HepG2 and Hep3B
Protocol: Human hepatoma cell lines HepG2 and Hep3B were inoculated onto the six-well plate with a concentration of 5×10^5 cells/dish, and the all-trans retinoic acid, somatostatin, tumor necrosis factor, and arsenic trioxide were added respectively. The total RNA was extracted by Trizol kit, and reverse transcriptase reaction was carried out for 2 hrs. 1 μl diluted reverse transcription product was taken and used as template for PCR amplification to detect the mRNA expression of liver cell-related function genes. The proliferation and apoptosis related proteins such as Cyclin, Bax, Bcl-2 and so on was measured by immunohistochemistry.

Compound | differentiation induction effect on tumor stem cells [1] | in vivo induction of differentiation of solid tumors (solid tumors) | regulation effect on in vitro differentiation of hepatocellular carcinoma cell lines [2] | apoptosis [2] | proliferation [2]
CC1=C(/C=C/C(C)=C/C=C/C(C)=C/C(=O)O)C(C)(C)CCC1 [all-trans retinoic acid] | no significant differentiation induction effect | can not effectively induce the differentiation of solid tumors | no drugs or proteins with clear differentiation therapy effects |  | 
arsenic trioxide | no significant differentiation induction effect | can not effectively induce the differentiation of solid tumors | no drugs or proteins with clear differentiation therapy effects | significantly increased | reduced
tumor necrosis factor |  | can not effectively induce the differentiation of solid tumors | no drugs or proteins with clear differentiation therapy effects | significantly increased | reduced

— US20110077206A1, “USE OF HNF4ALPHA FOR TREATMENT OF HUMAN MALIGNANT SOLID TUMORS THROUGH INDUCTION-DIFFERENTIATION THERAPY” (SECOND MILITARY MEDICAL UNIVERSITY, priority 2008, published 2011)
